The text below walks through data of patent US20170056380A1, “Systems, Methods, Techniques, and Compounds in Research and Treatment of Portal Hypertension and other Conditions” (priority 2014, published 2017).

This assay concerns the target T1, eNOS cytochrome c reductase activity (Rattus norvegicus, UniProt Q62600).
T1 construct: endogenous in cells; host or cells: primary liver sinusoidal endothelial cells from male Sprague-Dawley rats (normal or bile-duct-ligated)
T1 sequence (Q62600 1-1202): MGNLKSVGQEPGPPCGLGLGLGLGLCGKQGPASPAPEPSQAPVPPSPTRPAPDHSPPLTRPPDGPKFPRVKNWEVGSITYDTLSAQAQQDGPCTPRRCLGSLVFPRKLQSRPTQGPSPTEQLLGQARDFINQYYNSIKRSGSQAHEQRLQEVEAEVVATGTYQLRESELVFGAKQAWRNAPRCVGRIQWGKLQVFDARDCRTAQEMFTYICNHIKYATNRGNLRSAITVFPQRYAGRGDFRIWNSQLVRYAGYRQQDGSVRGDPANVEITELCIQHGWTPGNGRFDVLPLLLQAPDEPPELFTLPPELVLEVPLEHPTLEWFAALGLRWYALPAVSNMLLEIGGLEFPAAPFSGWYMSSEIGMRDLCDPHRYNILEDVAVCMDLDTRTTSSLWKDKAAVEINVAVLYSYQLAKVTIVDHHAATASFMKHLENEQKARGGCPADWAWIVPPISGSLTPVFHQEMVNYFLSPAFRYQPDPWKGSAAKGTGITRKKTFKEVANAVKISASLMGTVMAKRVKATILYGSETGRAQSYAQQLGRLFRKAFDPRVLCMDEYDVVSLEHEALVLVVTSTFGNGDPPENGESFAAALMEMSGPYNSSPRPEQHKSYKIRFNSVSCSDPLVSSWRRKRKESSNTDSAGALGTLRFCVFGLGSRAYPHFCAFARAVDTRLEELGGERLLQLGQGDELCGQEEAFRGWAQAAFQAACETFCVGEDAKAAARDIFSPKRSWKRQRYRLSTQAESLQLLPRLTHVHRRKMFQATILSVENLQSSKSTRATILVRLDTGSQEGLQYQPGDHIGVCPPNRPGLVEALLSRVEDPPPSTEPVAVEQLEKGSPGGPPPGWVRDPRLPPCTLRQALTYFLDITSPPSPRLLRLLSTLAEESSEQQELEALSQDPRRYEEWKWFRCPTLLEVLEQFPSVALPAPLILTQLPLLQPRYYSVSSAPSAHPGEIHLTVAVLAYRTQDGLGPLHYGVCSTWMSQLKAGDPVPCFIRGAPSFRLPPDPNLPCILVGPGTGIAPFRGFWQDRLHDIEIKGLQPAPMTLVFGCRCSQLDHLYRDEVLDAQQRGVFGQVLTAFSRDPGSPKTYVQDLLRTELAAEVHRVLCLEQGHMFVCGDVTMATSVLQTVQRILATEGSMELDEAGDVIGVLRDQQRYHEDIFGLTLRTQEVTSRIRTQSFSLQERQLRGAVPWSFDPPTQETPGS
The experiment in a line: NADPH-dependent cytochrome c reductase assay in sinusoidal endothelial cell lysates. The class given is cell-based. As for the experimental part: Cell isolation and culture. Sinusoidal endothelial cells were isolated from male Sprague-Dawley rats (450-500 g) (Harlan, Indianapolis, Ind.). In brief, after in situ perfusion of the liver with 20 mg/100 mg pronase (Roche Molecular Biochemicals, Indianapolis, Ind.), followed by collagenase (Worthington Biochemical, Lakewood, N.J.), dispersed cell suspensions were removed from a layered discontinuous density gradient of 8.2 and 15.6% Accudenz (Accurate Chemical and Scientific, Westbury, N.Y.), further purified by centrifugal elutriation (18 ml/min flow), and were grown in medium containing 20% serum (10% horse/calf). The purity of endothelial cells was documented by their uptake of fluorescently labeled di-l-acetoacetylated low-density lipoprotein as described (21). Only primary sinusoidal endothelial isolates of >95% purity were used for study. Experiments were performed with cells frorrr a minimum three different isolations (for all experiments).
NOS activity assay. NOS activity from sinusoidal endothelial cell lysates was assessed by measuring the conversion of L-[3H]arginine to L-[3H]citrulline as described (6) per the manufacturer's instructions (Cayman Chemical). […] Radiolabeled counts per minute of generated L-citrulline were measured and used to determine L-NAME-inhibitable NOS activity (thus, each experiment included total counts and background counts). […] The reductase activities of sinusoidal endothelial cells with or without cicletanine exposure were determined using the NADPH-dependent cytochrome c assay. […] The reduction of cytochrome c was monitored at 550 nm at 25° C. […] Turnover number was calculated using the absorbance change during this 30-s interval and an extinction coefficient of 0.021/μM.

On to `Cc1ncc2c(c1O)COC2c1ccc(Cl)cc1` (stereo not drawn) [cicletanine, 3-(4-chlorophenyl)-1,3-dihydro-7-hydroxy-6-methylfuro-(3,4-c) pyridine], for which the “rate of cytochrome c reduction compared with no cicletanine treatment” value is on record as “twofold more” (CaM stimulation) and “twofold more” (basal level). Further, for the setting “cicletanine 100 nM, 2 h”, the “cytochrome c reductase activity” value is given as “significant increase”.
